Reference: US20080233558A1, “Inhibitors of viral entry screening method” (priority 2005, published 2008)

Key:
[1] = test system: MLV(VSV-G Env) pseudotype particles; format: cell-based
[2] = test system: MLV(VSV-G Env) particles that transduce a gfp-gene; format: cell-based
[3] = test system: MLV(VSV-G Env) pseudotype particles; format: cell-based; remark: listed apart in the source
[4] = test system: indicator cells (HEK293T expressing tPA-HA); details: increasing inhibitor concentrations up to 1 mM; due to cytotoxic effects

Q: `Cc1cn([C@H]2C[C@H](N=[N+]=[N-])[C@@H](CO)O2)c(=O)[nH]c1=O` [AZT] was tested. Which “fluorescence readout signal with increasing concentrations of the inhibitor” value [1] did it give?
A: increased signal intensities

Q: What about the “readout signal at concentrations higher than the optimal concentration” value [1] of the same compound?
A: decreased readout signals

Q: What about the “gfp fluorescence signal at the highest inhibitor concentration” value [2] of the same compound?
A: lowest fluorescence signal

Q: What about the “cell populations after α-HA antibody staining” value [3] of the same compound?
A: just one (fluorescence positive) population

Q: And the “fluorescence signal of indicator cells in absence of any particles” value [4]?
A: decreasing fluorescence intensities
